Experimental findings from ChEMBL document CHEMBL1201862, “PubChem BioAssay data set” (2004) are described below.

SMILES strings stand for the structures.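 Where inhibition never reached the appropriate level, the endpoint shown equals the highest concentration tested. Otherwise, values were interpolated linearly from a five-concentration, 48-hour dose response in 96-well plates. The concentration for 50% growth inhibition is given as GI50.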 Active and inactive are the calls of the source. No stated cut-off is given here; in the data, active = GI50 up to about 1.1 µM and inactive = higher.

Assay in all cases: NCI-60 cell line screen, 48 h
The subject of test [1] is 786-0.
Test [2] deals with CAKI-1.
Test [3] concerns CCRF-CEM.
Test [4] deals with COLO 205.
Test [5] relates to HCT-116.
For test [6], the system named is HL-60.
Test [7] relates to HOP-62.
Test [8] concerns HT-29.
The subject of test [9] is Hs-578T.
Test [10] concerns KM12.
For test [11], the system named is LOX IMVI.
Test [12] deals with MDA-MB-435.
Test [13] relates to NCI-H460.
Test [14] relates to NCI-H522.
Test [15] relates to OVCAR-3.
The test system of test [16] is SF-268.
Test [17] concerns SF-295.
Test [18] relates to SNB-19.
Test [19] relates to TK-10.
Test [20] relates to SR.

For the compound `COc1ccc(OC/C(N)=N/NC(=O)c2ccncc2)cc1`, the GI50 in test [1], in test [2], in [3], in [4], in test [5] and in test [6] was > 100 µM (inactive) in each case. Besides, the GI50 in [7], in test [8], in test [9], in [10], in test [11] and in test [12] was > 100 µM (inactive) in each case. For the same compound, the GI50 in test [13], in test [14], in test [15], in test [16], in test [17] and in test [18] was > 100 µM (inactive) throughout. Moreover, the GI50 in [19] is > 100 µM (inactive).
With `Cc1ccc(C)c2c1CC(Cc1ccccc1C(=O)O)C2=O` (stereo not given), the GI50 in test [1], in [2], in test [3], in test [4], in test [5] and in test [6] was > 100 µM (inactive) throughout. In addition, the GI50 in test [7], in test [8], in [9], in [10], in [11] and in test [12] was > 100 µM (inactive) in each case. Further, the GI50 in test [13], in [14], in [15], in test [16], in test [17] and in test [18] was > 100 µM (inactive) in each case. Further, the GI50 in test [19] was > 100 µM (inactive).
Regarding `CCOC(=O)c1c(O)nc(O)c(CC)c1C`, the GI50 in test [1], in test [2], in [3], in [4], in test [5] and in [6] was > 100 µM (inactive) each time. Further, the GI50 in test [7], in test [8], in test [9], in test [10], in test [11] and in test [12] was > 100 µM (inactive) each time. Moreover, the GI50 in [13], in [14], in test [15], in [16], in [17] and in [18] was > 100 µM (inactive) each time. In test [19], the GI50 was > 100 µM (inactive).
For the compound `CC/C=C/c1cc2c(cc1O)CCC1C2CC[C@@]2(C)C1CC[C@@H]2O` (stereo not given in full), the GI50 in test [1] is 2.34 µM (inactive); in test [2], 0.524 µM (active); in test [3], 1.73 µM (inactive); in test [4], 14 µM (inactive); in test [5], 1.02 µM (active); in test [8], 7.93 µM (inactive). Besides, the GI50 was 1.65 µM (inactive) in [9]; 4.32 µM (inactive) in test [10]; 0.904 µM (active) in [11]; 0.246 µM (active) in test [12]; 0.82 µM (active) in test [13]; 0.475 µM (active) in test [14]. Moreover, the GI50 in test [15] is 0.265 µM (active); in test [16], 10.2 µM (inactive); in test [17], 0.34 µM (active); in test [18], 2.6 µM (inactive); in [20], 0.34 µM (active); in [19] it was 1.03 µM (active).
